In data set [1] the test system is hen osteoclasts. The experiment in a line: Bone resorption by hen osteoclast cultures with rat bone particles pre-labelled with tritiated proline. The format is cell-based. The conditions noted are these: for inhibition at 10 µg/mL / inhibition at 25 µg/mL: Osteoclast, read-out: Inhibition % vs. controls. The procedure:
The activity of the new xanthones has been evaluated in vitro and in vivo. The effect on the bone resorption has been studied in vitro according to Zambonin-Zallone et al. Anatomy Embriology, 165, 405, 1982). The medullary bone, deriving from tibia and femur of hens fed with hypocalcic diet for 7 days was washed with MEM buffer, modified according to Joklik, at 4°C and filtered through a nylon filter with pore diameters of 112 microns. The obtained cell suspension was centrifuged at 1800 rpm for 5 minutes. The surnatant was discarded and the pellet treated with a 0.2% NaCl solution for 30 seconds to eliminate most of the present red blood cells. After restoration of the physiological osmolarity by means of 1.6% NaCl, the sample was centrifuged at 1800 rpm for 5 min. The obtained pellet, suspended again in the culture medium, was layered on 75% foetal calf serum in Joklik MEM for 45 min, so as to obtain a cell suspension enriched in osteoclasts. The fibroblasts were then filtered off by means of two filtrations on 112 µn nylon filters.
The so obtained cells were cultivated in a nucleotide-free medium, in the presence of 3 µg/ml of cytosine-1-D-β-arabinofuranoside to block the mitosis of proliferating cells. The culture medium contained 100 µg/ml streptomycin, 100 U.I./ml penicillin and 10% fetal calf serum. The cultures were incubated in humid atmosphere saturated with 5% CO₂ at 37°C and washed after 24 and 48 hours to remove non-adhering medullary cells.
The bone resorption was evaluated using the so prepared osteoclasts cultures cultured in the presence of rat bone particles, pre-labelled in vivo with trititated proline. During the resorption process, the collagen was degraded into fragments containing tritiated proline which was released in the culture medium; the resorption was calculated by measuring the radioactivity present in the medium after 24 and 48 hours of treatment.
Simultaneously to each experiment, cell-free samples have also been prepared containing only bone fragments labelled in the culture medium to measure the aspecific release of radioactivity from the bone. This value was subtracted as background from the corresponding experimental value.
The compounds under examination were added to the culture medium at the concentrations of 10 and 25 µg/ml dissolved in DMSO. The inhibiting effect on the bone resorption of osteoclast of compound I (R = iPr, R₁ = OiPr), as an example, is reported on Table 1.
The significance was evaluated by the Student's t test versus the group treated with the solvent alone (control).

Data set [2] concerns suckling rats under hypocalcic diet. The experiment in a line: Antiosteoporotic activity in suckling rats under hypocalcic diet (femur compacta thickness by microradiography). The format is in vivo, Wistar rats. Particulars: 250 mg/kg/os. The procedure:
In vivo, the antiosteoporotic activity of the compound I (R = iPr, R₁ = OiPr) administered by the oral route, was evaluated on suckling rats under hypocalcic diet according to the method, slightly modified, disclosed by Lozupone et al., Bone, 9; 215, 1988). Female Wistar rats were allowed to delivery spontaneously.
The offsprings were pooled, weighed and re-distributed so as to obtain nests similar in weight and number.
The mothers during the suckling period were fed with an hypocalcic diet (Altromin DP 1031) and divided in two groups.
One group was treated orally with compound I (R = iPr, R₁ = OiPr) suspended in Methocel 0.5% at the dose of 250 mg/kg, whereas the second was treated with the vehicle alone (control group). The animals were sacrificed after 10 days from the start of milking.
The femur was taken from each animal and fixed, included in methacrylate and transversally cut. Two sections taken at the distal methaphysis and one from the medial methaphysis were microradiographed so as to measure the thickness of the compacta.

Data set [3] can be described thus: Acute toxicity in the rat after oral and intraperitoneal administration. Also noted: species or system Sprague-Dawley rats. The conditions noted are these: in vivo, 14 days observation, read-out: LD₅₀. The procedure:
The acute toxicity of the compound I (R = iPr; R₁ = OiPr) was evaluated in the rat after oral and intraperitoneal administration.
Sprague-Dawley rats of both sexes (5M + 5F) were used for each group. […] The compound has an LD₅₀ > 4000 mg/kg (LD₀) after oral administration and an LD₅₀ > 1000 mg/kg (LD₂₀) by intraperitoneal route.

Setting [4] is: change versus control group (Methocel 0.5%).
The mark [5] stands for this setting: change versus control group (Methocel 0.5%); R₁ = OiPr).
The mark [6] stands for this setting: femur, sacrificed after 10 days, n = 3, p < 0.05.

The structures appear in SMILES notation. Read-outs that look alike come from different tables or passages of the source.

We go through one molecule from patent EP0586960B1, “Xanthone derivatives, their preparation and use” (INVERNI DELLA BEFFA S.P.A., priority 1992, dated 1994).

Usually inhibition stands for the drop in the measured response relative to a control, in per cent. `CC(C)Oc1ccc2c(=O)c3ccc(OC(C)C)cc3oc2c1` [I (R=iPr; R₁=OiPr), 3,6-Di(isopropoxy)xanthone]: the “Bone Res.” value came out at 32.1 ± 3.6 µg in data set [1] (Conc. 10 µg/ml, 24h, n = 4); 50.2 ± 6.3 µg in data set [1] (Conc. 10 µg/ml, 48h, n = 4); 16.0 ± 1.0 µg in data set [1] (Conc. 25 µg/ml, 24h, n = 4, p < 0.01); 21.0 ± 1.0 µg in data set [1] (Conc. 25 µg/ml, 48h, n = 4, p < 0.01). Moreover, the inhibition at 10 µg/mL in data set [1] (Conc. 10 µg/ml, 24h) amounted to 27.5%; in data set [1] (Conc. 10 µg/ml, 48h) it was 30.9%. In addition, the inhibition at 25 µg/mL in data set [1] (Conc. 25 µg/ml, 24h) came to 63.8%; in data set [1] (Conc. 25 µg/ml, 48h) it was 71.1%. Besides, in data set [1] (at the concentrations of 10 and 25 µg/ml), the “activity on bone resorption” value is listed as “dose dependent activity”. Further, the “bone resorption inhibition in comparison to unexposed controls” value in data set [1] (both at 24 and at 48 hours, concentration not stated in the sentence (10 and 25 µg/ml tested)) is “higher than 60%”. Also, the “Compacta thinkness Diaphysis %” value in data set [2] (setting [4]) is “+29%”; in data set [2] (setting [5]), 29%. The “Compacta thinkness Methaphysis %” value in data set [2] (setting [4]) is recorded as “+29%”; in data set [2] (setting [5]), 29%. Also, the “Compacta thinkness Diaphysis mm ± S.D.” value in data set [2] (setting [6]) is 0.71±0.03 mm. The “Compacta thinkness Methaphysis mm ± S.D.” value in data set [2] (setting [6]) is 0.40±0.12 mm. Further, the LD50 at 336 h is over 1000 mg/kg in data set [3] (ip, intraperitoneal route, printed with (LD₂₀)) and over 4000 mg/kg in data set [3] (oral administration, printed with (LD₀)).
